From US9695163B2, “Thiazole orexin receptor antagonists” (MERCK SHARP & DOHME CORP., priority 2013, dated 2017) come the findings set out here.

Test [1] deals with human orexin-2 receptor (hOX2R) (Homo sapiens (Human), UniProt O43614). Briefly: FLIPR Ca2+ Flux Assay, CHO cells expressing human orexin-2 receptor. The note with it: agonist Ala-6,12 human orexin-A 70 pM. It is filed as cell-based. On the procedure:
Briefly, for intracellular calcium measurements, Chinese hamster ovary (CHO) cells expressing the orexin-1 receptor (e.g., rat or human) or the orexin-2 receptor (e.g., rat or human), are grown in Iscove's modified DMEM containing 2 mM L-glutamine, […], 1% hypoxanthine-thymidine supplement, 100 U/ml penicillin, 100 μg/ml streptomycin and 10% heat-inactivated fetal calf serum (FCS). The cells are seeded at approximately 20,000 cells per well into 384-well clear bottom sterile plates coated with poly-D-lysine. The seeded plates are incubated overnight at 37° C. and 5% CO2. Human ala-6,12 orexin-A can be used as the agonist and prepared as a 1 mM stock solution in 1% bovine serum albumin (BSA) and diluted in assay buffer (HBSS containing 20 mM HEPES, 0.1% BSA and 2.5 mM probenecid, pH7.4) for use in the assay at a final concentration of 70 pM. Test compounds are prepared as 10 mM stock solution in DMSO, then diluted in 384-well plates, first in DMSO, then in assay buffer. On the day of the assay, cells are washed 3 times with 100 μl assay buffer and then incubated for 60 minutes (37° C., 5% CO2) in 60 μl assay buffer containing 1 μM Fluo-4 AM ester, 0.02% pluronic acid, and 1% BSA. The dye loading solution is then aspirated and cells are washed 3 times with 100 μl assay buffer. 30 μl of that same buffer is left in each well. Within the Fluorescent Imaging Plate Reader (FLIPR, Molecular Devices), test compounds are added to the plate in a volume of 25 μl, incubated for 5 minutes, and then 25 μl of agonist is added. Fluorescence is measured for each well at 1 second intervals for 5 minutes, and the height of each fluorescence peak is compared to the height of the fluorescence peak induced by 70 pM of agonist ala-6,12 orexin-A with buffer in place of test compound. IC50 value for the test compound is determined to be the concentration of compound needed to inhibit 50% of the agonist response. Alternatively, compound potency can be assessed using a radioligand binding assay (described in Bergman et. al., Bioorg. Med. Chem. Lett. 2008, 18:1425-1430) in which the inhibition constant (Ki) is determined in membranes prepared from CHO cells expressing either the OX1 or OX2 receptor. The intrinsic orexin receptor antagonist activity of a compound of the present invention may be determined by these assays. […]
Background: A change in cytosolic calcium serves as a functional read-out for many receptors and channels.

The target in test [2] is human orexin-1 receptor (hOX1R) (Homo sapiens (Human), UniProt O43613). The test can be described thus: FLIPR Ca2+ Flux Assay, CHO cells expressing human orexin-1 receptor. It is filed as cell-based. The note with it: agonist Ala-6,12 human orexin-A 70 pM. An excerpt: The utility of the compounds in accordance with the present invention as orexin receptor OX1R and/or OX2R antagonists may be readily determined without undue experimentation by methodology well known in the art, including the “FLIPR Ca^2+ Flux Assay” (Okumura et al., Biochem. Biophys. Res. Comm. 2001, 280:976-981). Briefly, for intracellular calcium measurements, Chinese hamster ovary (CHO) cells expressing the orexin-1 receptor (e.g., rat or human) or the orexin-2 receptor (e.g., rat or human), are grown in Iscove's modified DMEM containing 2 mM L-glutamine, […], 1% hypoxanthine-thymidine supplement, 100 U/ml penicillin, 100 μg/ml streptomycin and 10% heat-inactivated fetal calf serum (FCS). The cells are seeded at approximately 20,000 cells per well into 384-well clear bottom sterile plates coated with poly-D-lysine. The seeded plates are incubated overnight at 37° C. and 5% CO2. Human ala-6,12 orexin-A can be used as the agonist and prepared as a 1 mM stock solution in 1% bovine serum albumin (BSA) and diluted in assay buffer (HBSS containing 20 mM HEPES, 0.1% BSA and 2.5 mM probenecid, pH7.4) for use in the assay at a final concentration of 70 pM. Test compounds are prepared as 10 mM stock solution in DMSO, then diluted in 384-well plates, first in DMSO, then in assay buffer. On the day of the assay, cells are washed 3 times with 100 μl assay buffer and then incubated for 60 minutes (37° C., 5% CO2) in 60 μl assay buffer containing 1 μM Fluo-4 AM ester, 0.02% pluronic acid, and 1% BSA. The dye loading solution is then aspirated and cells are washed 3 times with 100 μl assay buffer. 30 μl of that same buffer is left in each well. Within the Fluorescent Imaging Plate Reader (FLIPR, Molecular Devices), test compounds are added to the plate in a volume of 25 μl, incubated for 5 minutes, and then 25 μl of agonist is added. Fluorescence is measured for each well at 1 second intervals for 5 minutes, and the height of each fluorescence peak is compared to the height of the fluorescence peak induced by 70 pM of agonist ala-6,12 orexin-A with buffer in place of test compound. IC50 value for the test compound is determined to be the concentration of compound needed to inhibit 50% of the agonist response. Alternatively, compound potency can be assessed using a radioligand binding assay (described in Bergman et. al., Bioorg. Med. Chem. Lett. 2008, 18:1425-1430) in which the inhibition constant (Ki) is determined in membranes prepared from CHO cells expressing either the OX1 or OX2 receptor. The intrinsic orexin receptor antagonist activity of a compound of the present invention may be determined by these assays.
Sequence of human orexin-1 receptor (hOX1R) (O43613 whole entry): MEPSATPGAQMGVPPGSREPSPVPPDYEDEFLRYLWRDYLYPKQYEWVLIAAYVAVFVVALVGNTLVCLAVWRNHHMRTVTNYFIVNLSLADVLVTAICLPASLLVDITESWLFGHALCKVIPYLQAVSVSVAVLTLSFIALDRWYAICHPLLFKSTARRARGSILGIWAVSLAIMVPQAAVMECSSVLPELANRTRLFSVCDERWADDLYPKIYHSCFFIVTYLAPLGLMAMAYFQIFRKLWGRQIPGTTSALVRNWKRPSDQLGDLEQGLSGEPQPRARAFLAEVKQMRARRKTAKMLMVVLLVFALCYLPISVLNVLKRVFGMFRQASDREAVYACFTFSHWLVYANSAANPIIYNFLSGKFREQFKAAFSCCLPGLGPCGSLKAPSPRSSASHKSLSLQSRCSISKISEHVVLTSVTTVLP

Sequence of human orexin-2 receptor (hOX2R) (O43614 whole entry): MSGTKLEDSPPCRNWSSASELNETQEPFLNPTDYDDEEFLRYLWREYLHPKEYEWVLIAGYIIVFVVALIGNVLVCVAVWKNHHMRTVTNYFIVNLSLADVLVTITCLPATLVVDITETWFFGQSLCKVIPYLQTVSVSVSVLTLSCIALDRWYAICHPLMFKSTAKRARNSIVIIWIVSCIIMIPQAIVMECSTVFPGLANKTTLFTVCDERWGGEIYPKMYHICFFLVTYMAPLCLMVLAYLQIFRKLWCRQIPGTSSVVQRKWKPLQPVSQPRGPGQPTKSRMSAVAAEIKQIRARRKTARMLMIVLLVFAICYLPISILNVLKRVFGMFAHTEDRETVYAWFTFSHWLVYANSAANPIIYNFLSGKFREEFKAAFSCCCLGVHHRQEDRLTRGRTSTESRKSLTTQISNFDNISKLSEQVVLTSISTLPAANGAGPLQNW

One may read the IC50 as the concentration that inhibits the measured activity by half. Read a low IC50 as inhibition by little substance. As to `C[C@@H]1CC[C@@H](c2nc([C@H](O)C(F)F)cs2)CN1C(=O)c1ccccc1-n1nccn1` [Example 9], the concentration for half-maximal inhibition (IC50) in test [1] was found to be 0.0094 µM; in test [2], 0.52 µM.

For the compound `COC(=O)c1ccccc1C(=O)N1C[C@H](c2nc(C(C)(C)O)cs2)CC[C@H]1C` [Example 12, Methyl 2-((2R,5R)-5-(4-(2-hydroxypropan-2-yl)thiazol-2-yl)-2-methylpiperidine-1-carbonyl)benzoate], the results for the IC50 in test [1] and in test [2] were 0.044 µM and greater than 10 µM, respectively.

For `C[C@@H]1CC[C@@H](c2nc(C(C)(C)O)cs2)CN1C(=O)c1ccc(F)cc1-n1nccn1` [Example 13, (4-fluoro-2-(2H-1,2,3-triazol-2-yl)phenyl)((2R,5R)-5-(4-(2-hydroxypropan-2-yl)thiazol-2-yl)-2-methylpiperidin-1-yl)methanone], the IC50 in test [1] amounted to 0.019 µM; in test [2], 2.25 µM.

`C[C@@H]1CC[C@@H](c2csc(C(C)(C)O)n2)CN1C(=O)c1ccc(F)cc1-n1nccn1` [Example 38, (4-Fluoro-2-(2H-1,2,3-triazol-2-yl)phenyl)((2R,5R)-5-(2-(2-hydroxypropan-2-yl)thiazol-4-yl)-2-methylpiperidin-1-yl)methanone]: the figures for the 50% inhibitory concentration (IC50) in test [1] and in test [2] were 0.014 µM and 2.05 µM, respectively.

On to `C[C@@H]1CC[C@@H](c2csc(C(C)(C)O)n2)CN1C(=O)c1ccsc1-c1ncccn1` [Example 31, ((2R,5R)-5-(2-(2-hydroxypropan-2-yl)thiazol-4-yl)-2-methylpiperidin-1-yl)(2-(pyrimidin-2-yl)thiophen-3-yl)methanone], for which the IC50 is 0.09 µM in test [1] and greater than 10 µM in test [2].

For the compound `Cc1sc([C@@H]2CC[C@@H](C)N(C(=O)c3cscc3-c3ncccn3)C2)nc1C(C)(C)O` [Example 28, ((2R,5R)-5-(4-(2-Hydroxypropan-2-yl)-5-methylthiazol-2-yl)-2-methylpiperidin-1-yl)(4-(pyrimidin-2-yl)thiophen-3-yl)methanone], the half-inhibitory concentration (IC50) in test [1] amounted to 0.029 µM; in test [2], 0.9 µM.

On to `CCOC(=O)c1cnc([C@@H]2CC[C@@H](C)N(C(=O)c3ccccc3-n3nccn3)C2)s1` [Example 1, Ethyl 2-((3R,6R)-1-(2-(2H-1,2,3-triazol-2-yl)benzoyl)-6-methylpiperidin-3-yl)thiazole-5-carboxylate], for which the IC50 in test [1] was 1.51 µM; in test [2] it was greater than 10 µM.

As to `C[C@@H]1CC[C@@H](c2nc(C(C)(C)O)cs2)CN1C(=O)c1ccsc1-n1nccn1` [Example 10, (2-(2H-1,2,3-triazol-2-yl)thiophen-3-yl)((2R,5R)-5-(4-(2-hydroxypropan-2-yl)thiazol-2-yl)-2-methylpiperidin-1-yl)methanone], the IC50 in test [1] was 0.019 µM; in test [2], 7.4 µM.

For the compound `C[C@@H]1CC[C@H](c2ncc(C(C)(C)O)s2)CN1C(=O)c1ccccc1-n1nccn1` [Example 3, (2-(2H-1,2,3-Triazol-2-yl)phenyl)((2R,5S)-5-(5-(2-hydroxypropan-2-yl)thiazol-2-yl)-2-methylpiperidin-1-yl)methanone], the IC50 in test [1] is 2.65 µM; in test [2], greater than 10 µM.

Regarding `C[C@@H]1CC[C@@H](c2nc(C(C)(C)O)cs2)CN1C(=O)c1ccccc1-n1ncnn1` [Example 14, (2-(2H-Tetrazol-2-yl)phenyl)((2R,5R)-5-(4-(2-hydroxypropan-2-yl)thiazol-2-yl)-2-methylpiperidin-1-yl)methanone], the IC50 in test [1] is 0.021 µM; in test [2], greater than 10 µM.

Consider `C[C@@H]1CC[C@@H](c2nc(C(C)(C)O)cs2)CN1C(=O)c1cscc1-n1nccn1` [Example 15, (4-(2H-1,2,3-Triazol-2-yl)thiophen-3-yl)((2R,5R)-5-(4-(2-hydroxypropan-2-yl)thiazol-2-yl)-2-methylpiperidin-1-yl)methanone], for which the IC50 in test [1] is 0.016 µM; in test [2], greater than 10 µM.

Regarding `Cc1sc([C@@H]2CC[C@@H](C)N(C(=O)c3ccc(F)cc3-n3nccn3)C2)nc1C(C)(C)O` [Example 22, (4-fluoro-2-(2H-1,2,3-triazol-2-yl)phenyl)((2R,5R)-5-(4-(2-hydroxypropan-2-yl)-5-methylthiazol-2-yl)-2-methylpiperidin-1-yl)methanone], the IC50 in test [1] was 0.02 µM; in test [2], 0.93 µM.

Take `Cc1sc([C@@H]2CC[C@@H](C)N(C(=O)c3ccsc3-n3nccn3)C2)nc1C(C)(C)O` [Example 20, (2-(2H-1,2,3-triazol-2-yl)thiophen-3-yl)((2R,5R)-5-(4-(2-hydroxypropan-2-yl)-5-methylthiazol-2-yl)-2-methylpiperidin-1-yl)methanone]: the IC50 in test [1] is 0.012 µM; in test [2], 0.97 µM.

For `C[C@@H]1CC[C@@H](c2nc(C(C)(C)O)cs2)CN1C(=O)c1ccsc1-c1ncccn1` [Example 18, ((2R,5R)-5-(4-(2-Hydroxypropan-2-yl)thiazol-2-yl)-2-methylpiperidin-1-yl)(2-(pyrimidin-2-yl)thiophen-3-yl)methanone], the IC50 in test [1] is 0.114 µM; in test [2] it was greater than 10 µM.

`C[C@@H]1CC[C@@H](c2csc(C(C)(C)O)n2)CN1C(=O)c1ccccc1C1(C#N)CC1` [Example 30, 1-(2-((2R,5R)-5-(2-(2-hydroxypropan-2-yl)thiazol-4-yl)-2-methylpiperidine-1-carbonyl)phenyl)cyclopropanecarbonitrile]: the IC50 in test [1] came to 0.013 µM; in test [2], 1.2 µM.

Take “((2R,5R)-5-(4-(2-Hydroxypropan-2-yl)-5- methylthiazol-2-yl)-2-methylpiperidin-1- yl)(2-(pyrimidin-2-yl)thiophen-3- yl)methanone [Example 27]”: the IC50 in test [1] stood at 0.087 µM; in test [2], 0.7 µM.

Consider `C[C@@H]1CC[C@@H](c2csc(C(C)(C)O)n2)CN1C(=O)c1ccsc1-n1nccn1` [Example 37, (2-(2H-1,2,3-Triazol-2-yl)thiophen-3-yl)((2R,5R)-5-(2-(2-hydroxypropan-2-yl)thiazol-4-yl)-2-methylpiperidin-1-yl)methanone], for which the IC50 in test [1] worked out at 0.016 µM; in test [2] it was 7.2 µM.

As to `C[C@@H]1CC[C@@H](c2csc(C(C)(C)O)n2)CN1C(=O)c1ccccc1-c1ncccn1` [Example 33, ((2R,5R)-5-(2-(2-hydroxypropan-2-yl)thiazol-4-yl)-2-methylpiperidin-1-yl)(2-(pyrimidin-2-yl)phenyl)methanone], the IC50 in test [1] was 0.102 µM; in test [2], greater than 10 µM.

For `C[C@@H]1CC[C@@H](c2csc(C(C)(C)O)n2)CN1C(=O)c1ccccc1-n1ncnn1` [Example 29, (2-(2H-Tetrazol-2-yl)phenyl)((2R,5R)-5-(2-(2-hydroxypropan-2-yl)thiazol-4-yl)-2-methylpiperidin-1-yl)methanone], the IC50 in test [1] is 0.015 µM.
